The source of these data is ChEMBL document CHEMBL3400144, “Design and synthesis of novel 1,2-dithiolan-4-yl benzoate derivatives as PTP1B inhibitors” (Bioorg Med Chem Lett, 2015).

Experiment [1] addresses T1, Tyrosine-protein phosphatase non-receptor type 11 (Homo sapiens, UniProt Q06124).
T1 sequence (Q06124 whole entry): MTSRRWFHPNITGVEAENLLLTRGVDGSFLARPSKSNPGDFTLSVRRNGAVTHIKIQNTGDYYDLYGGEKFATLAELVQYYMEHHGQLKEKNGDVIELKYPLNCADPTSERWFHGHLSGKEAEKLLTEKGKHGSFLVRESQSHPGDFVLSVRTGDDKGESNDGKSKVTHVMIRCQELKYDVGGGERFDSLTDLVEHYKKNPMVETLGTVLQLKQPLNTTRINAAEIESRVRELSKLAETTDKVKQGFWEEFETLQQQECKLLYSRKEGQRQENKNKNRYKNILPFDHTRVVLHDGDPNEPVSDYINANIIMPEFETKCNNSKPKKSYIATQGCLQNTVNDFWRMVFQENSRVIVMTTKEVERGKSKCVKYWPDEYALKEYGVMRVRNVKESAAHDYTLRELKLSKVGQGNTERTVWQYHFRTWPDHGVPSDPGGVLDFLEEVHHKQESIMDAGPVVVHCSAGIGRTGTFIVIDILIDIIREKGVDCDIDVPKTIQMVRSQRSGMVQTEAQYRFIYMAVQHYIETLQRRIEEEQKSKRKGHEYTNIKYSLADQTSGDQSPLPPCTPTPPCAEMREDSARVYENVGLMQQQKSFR
The experiment is described as follows: Inhibition of SHP2 (unknown origin).

Experiment [2] has as its target Tyrosine-protein phosphatase non-receptor type 6 (Homo sapiens, UniProt P29350). The experiment is described as follows: Inhibition of SHP1 (unknown origin).
Experiment [3] has as its target Receptor-type tyrosine-protein phosphatase F (Homo sapiens, UniProt P10586). In words: Inhibition of LAR (unknown origin).
For experiment [4], the target named is T2, Tyrosine-protein phosphatase non-receptor type 2 (Homo sapiens, UniProt P17706).
T2 sequence (P17706 whole entry): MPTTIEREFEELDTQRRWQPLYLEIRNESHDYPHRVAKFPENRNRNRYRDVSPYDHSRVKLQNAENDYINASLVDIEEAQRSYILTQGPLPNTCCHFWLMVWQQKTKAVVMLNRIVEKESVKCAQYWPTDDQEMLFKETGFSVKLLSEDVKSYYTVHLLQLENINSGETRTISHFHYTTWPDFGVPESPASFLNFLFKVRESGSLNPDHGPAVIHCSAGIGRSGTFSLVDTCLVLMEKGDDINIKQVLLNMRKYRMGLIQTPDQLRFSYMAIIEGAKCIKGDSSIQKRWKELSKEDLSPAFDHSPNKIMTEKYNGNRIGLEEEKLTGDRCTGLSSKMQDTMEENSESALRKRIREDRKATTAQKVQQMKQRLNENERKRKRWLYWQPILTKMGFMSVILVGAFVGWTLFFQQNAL
The experiment is described as follows: Inhibition of TCPTP (unknown origin).

For experiment [5], the target named is T3, Tyrosine-protein phosphatase non-receptor type 1 (Homo sapiens, UniProt P18031).
T3 sequence (P18031 whole entry): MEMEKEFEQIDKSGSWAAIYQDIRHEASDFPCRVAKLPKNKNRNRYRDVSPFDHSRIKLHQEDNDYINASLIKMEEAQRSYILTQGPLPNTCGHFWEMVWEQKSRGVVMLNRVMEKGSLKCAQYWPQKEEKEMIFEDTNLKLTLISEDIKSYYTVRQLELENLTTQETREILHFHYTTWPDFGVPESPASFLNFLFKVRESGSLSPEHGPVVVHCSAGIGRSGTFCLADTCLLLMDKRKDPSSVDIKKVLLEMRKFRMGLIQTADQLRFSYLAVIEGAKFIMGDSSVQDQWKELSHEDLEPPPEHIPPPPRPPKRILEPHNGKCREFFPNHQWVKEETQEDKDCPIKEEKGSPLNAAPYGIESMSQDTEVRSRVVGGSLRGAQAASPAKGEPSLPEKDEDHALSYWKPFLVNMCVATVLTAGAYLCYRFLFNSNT
The experiment is described as follows: Inhibition of PTP1B (unknown origin).

The species named for experiment [6] is Homo sapiens. The experiment is described as follows: Selectivity ratio of IC50 for TCPTP (unknown origin) to IC50 for PTP1B (unknown origin).

As usually defined, the IC50 is the concentration that inhibits the measured activity by half.

Sequence of Tyrosine-protein phosphatase non-receptor type 6 (P29350 whole entry): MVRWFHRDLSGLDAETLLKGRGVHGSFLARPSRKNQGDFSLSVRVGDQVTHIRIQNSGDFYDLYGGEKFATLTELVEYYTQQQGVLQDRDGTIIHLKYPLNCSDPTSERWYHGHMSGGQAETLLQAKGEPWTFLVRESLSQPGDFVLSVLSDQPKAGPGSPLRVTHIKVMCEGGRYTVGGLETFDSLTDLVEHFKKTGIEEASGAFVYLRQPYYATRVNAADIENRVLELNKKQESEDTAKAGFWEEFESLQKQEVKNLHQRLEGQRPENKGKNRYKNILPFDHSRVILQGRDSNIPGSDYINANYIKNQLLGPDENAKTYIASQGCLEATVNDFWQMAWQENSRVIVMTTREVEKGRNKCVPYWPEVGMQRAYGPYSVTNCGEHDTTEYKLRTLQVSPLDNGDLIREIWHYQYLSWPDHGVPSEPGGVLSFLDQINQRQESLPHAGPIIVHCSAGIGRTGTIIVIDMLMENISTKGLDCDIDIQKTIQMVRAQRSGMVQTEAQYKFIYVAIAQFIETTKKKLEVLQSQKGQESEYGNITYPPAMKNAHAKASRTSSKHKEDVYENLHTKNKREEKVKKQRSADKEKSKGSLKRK
Sequence of Receptor-type tyrosine-protein phosphatase F (P10586 whole entry): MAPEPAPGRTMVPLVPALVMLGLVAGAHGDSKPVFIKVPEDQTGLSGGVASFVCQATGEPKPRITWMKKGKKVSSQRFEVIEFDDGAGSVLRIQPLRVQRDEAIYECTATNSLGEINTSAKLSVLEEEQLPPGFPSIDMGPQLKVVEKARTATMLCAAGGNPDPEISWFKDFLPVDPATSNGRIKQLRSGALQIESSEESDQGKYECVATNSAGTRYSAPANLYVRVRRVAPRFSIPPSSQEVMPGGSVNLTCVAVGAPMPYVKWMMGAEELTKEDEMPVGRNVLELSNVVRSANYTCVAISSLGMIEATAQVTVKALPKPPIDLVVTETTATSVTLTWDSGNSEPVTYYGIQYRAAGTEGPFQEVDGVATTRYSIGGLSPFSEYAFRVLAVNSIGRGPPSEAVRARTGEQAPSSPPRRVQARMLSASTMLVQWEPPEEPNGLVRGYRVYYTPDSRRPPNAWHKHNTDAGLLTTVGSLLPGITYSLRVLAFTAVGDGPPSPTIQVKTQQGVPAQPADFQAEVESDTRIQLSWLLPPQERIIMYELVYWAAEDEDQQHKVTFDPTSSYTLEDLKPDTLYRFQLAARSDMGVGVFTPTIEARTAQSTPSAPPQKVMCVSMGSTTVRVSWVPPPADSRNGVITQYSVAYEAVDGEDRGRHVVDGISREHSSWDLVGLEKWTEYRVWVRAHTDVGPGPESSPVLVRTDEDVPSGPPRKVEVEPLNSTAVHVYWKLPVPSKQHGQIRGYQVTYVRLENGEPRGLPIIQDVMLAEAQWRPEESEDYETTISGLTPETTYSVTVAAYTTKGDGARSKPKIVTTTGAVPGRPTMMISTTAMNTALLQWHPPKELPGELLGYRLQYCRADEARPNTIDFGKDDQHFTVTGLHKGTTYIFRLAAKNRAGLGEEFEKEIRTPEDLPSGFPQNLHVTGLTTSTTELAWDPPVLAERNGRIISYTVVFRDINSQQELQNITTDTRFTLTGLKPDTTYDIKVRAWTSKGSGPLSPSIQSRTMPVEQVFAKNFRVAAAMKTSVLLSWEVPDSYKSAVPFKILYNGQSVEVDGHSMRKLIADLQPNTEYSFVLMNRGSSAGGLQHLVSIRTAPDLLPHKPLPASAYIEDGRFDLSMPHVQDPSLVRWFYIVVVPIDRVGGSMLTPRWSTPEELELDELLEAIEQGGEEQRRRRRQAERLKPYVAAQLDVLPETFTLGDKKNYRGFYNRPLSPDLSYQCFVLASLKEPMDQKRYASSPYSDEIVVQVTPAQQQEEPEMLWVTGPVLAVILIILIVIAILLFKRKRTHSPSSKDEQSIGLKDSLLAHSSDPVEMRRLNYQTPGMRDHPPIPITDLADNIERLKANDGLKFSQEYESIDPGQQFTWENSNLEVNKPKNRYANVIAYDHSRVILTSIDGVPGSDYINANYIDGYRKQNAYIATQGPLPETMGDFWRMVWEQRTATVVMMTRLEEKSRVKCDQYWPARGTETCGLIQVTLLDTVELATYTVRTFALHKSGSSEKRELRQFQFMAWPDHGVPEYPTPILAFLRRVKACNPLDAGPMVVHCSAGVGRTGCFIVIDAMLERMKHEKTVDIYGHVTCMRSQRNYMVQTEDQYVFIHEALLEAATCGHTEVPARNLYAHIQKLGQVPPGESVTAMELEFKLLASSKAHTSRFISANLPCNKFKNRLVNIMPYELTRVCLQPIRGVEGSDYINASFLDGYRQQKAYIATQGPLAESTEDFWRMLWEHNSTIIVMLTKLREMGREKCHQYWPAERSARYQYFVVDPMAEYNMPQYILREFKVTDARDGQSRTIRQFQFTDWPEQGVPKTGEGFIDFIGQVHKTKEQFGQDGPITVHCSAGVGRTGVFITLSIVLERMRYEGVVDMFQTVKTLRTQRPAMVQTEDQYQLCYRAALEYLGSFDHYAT

On to `O=C(OCCCCC#Cc1ccc(C(=O)OC2CSSC2)cc1)c1ccc(F)cc1`, for which the IC50 in experiment [1] (read-out: IC50) was 9.41 µM; in experiment [2] (read-out: IC50), 9.21 µM; in experiment [3] it was “Not Active”; in experiment [4], 4.36 µM; in experiment [5] (read-out: IC50) it was 4.68 µM.

As for `O=C(OCCCCC#Cc1ccc(C(=O)OC2CSSC2)cc1)c1cccc([N+](=O)[O-])c1`, the IC50 in experiment [1] (read-out: IC50) was 22.3 µM; in experiment [2] (read-out: IC50) it was 23.6 µM; in experiment [3], “Not Active”; in experiment [4], 12.9 µM; in experiment [5] (read-out: IC50), 9.7 µM.

For `O=C(OC1CSSC1)c1ccc(C#CCCCCOC(=O)c2ccccc2[N+](=O)[O-])cc1`, the IC50 is 11.5 µM in experiment [1] (read-out: IC50); 9.25 µM in experiment [2] (read-out: IC50); “Not Active” in experiment [3]; 7.83 µM in experiment [4]; 9.12 µM in experiment [5] (read-out: IC50).

On to `O=C(OC1CSSC1)c1ccc(C#CCCCCOC(=O)c2ccccc2F)cc1`, for which the IC50 was 10.5 µM in experiment [1] (read-out: IC50); 8.67 µM in experiment [2] (read-out: IC50); “Not Active” in experiment [3]; 6.48 µM in experiment [4]; 4.43 µM in experiment [5] (read-out: IC50).

As for `O=C(OC1CSSC1)c1ccc(OCCOC(=O)c2cc(Br)ccc2Br)cc1`, the IC50 entry was “Not Active” in experiment [1]; “Not Active” in experiment [2]; “Not Active” in experiment [3]; 35 µM in experiment [4]; 7.26 µM in experiment [5] (read-out: IC50).

Take `O=C(OC1CSSC1)c1ccc(C#CCCCCOC(=O)c2cc(Br)ccc2Br)cc1`: the IC50 in experiment [1] (read-out: IC50) was 13.2 µM; in experiment [2], “Not Active”; in experiment [3], “Not Active”; in experiment [4] it was 1.88 µM; in experiment [5] (read-out: IC50), 0.59 µM. In addition, the Ratio IC50 in experiment [6] was 3.

Consider `O=C(OC1CSSC1)c1ccc(C#CCCOC(=O)c2cc(Br)ccc2Br)cc1`, for which the IC50 in experiment [1] (read-out: IC50) was 8.25 µM; in experiment [2] (read-out: IC50), 15.7 µM; in experiment [3] it was “Not Active”; in experiment [4], 26.7 µM; in experiment [5] (read-out: IC50), 2.73 µM. Moreover, the Ratio IC50 in experiment [6] was 10.

Consider `COc1cccc(C(=O)OCCCCC#Cc2ccc(C(=O)OC3CSSC3)cc2)c1`, for which the IC50 in experiment [1] (read-out: IC50) is 34.6 µM; in experiment [2] (read-out: IC50), 38.4 µM; in experiment [3], “Not Active”; in experiment [4], 26.3 µM; in experiment [5] (read-out: IC50), 26.3 µM.

Consider `O=C(OC1CSSC1)c1ccc(OCCCOC(=O)c2cc(Br)ccc2Br)cc1`, for which the IC50 in experiment [1] (read-out: IC50) is 10.9 µM; in experiment [2] (read-out: IC50), 32.2 µM; in experiment [3], “Not Active”; in experiment [4], 27.6 µM; in experiment [5], “Not Active”.

On to `COc1ccc(C(=O)OCCCCC#Cc2ccc(C(=O)OC3CSSC3)cc2)cc1`, for which the IC50 is 6.64 µM in experiment [1] (read-out: IC50); 5.13 µM in experiment [2] (read-out: IC50); “Not Active” in experiment [3]; 4.58 µM in experiment [4]; 6.55 µM in experiment [5] (read-out: IC50).

As for `COc1ccccc1C(=O)OCCCCC#Cc1ccc(C(=O)OC2CSSC2)cc1`, the IC50 in experiment [1] (read-out: IC50) is 18.3 µM; in experiment [2] (read-out: IC50) it was 19.3 µM; in experiment [3], “Not Active”; in experiment [4], 23.2 µM; in experiment [5] (read-out: IC50), 23.5 µM.

In the case of `COc1ccc(C(=O)OCCCCC#Cc2ccc(C(=O)OC3CSSC3)cc2)c(OC)c1`, the IC50 entry in experiment [1] was “Not Active”; in experiment [2], “Not Active”; in experiment [3], “Not Active”; in experiment [4], 20 µM; in experiment [5] (read-out: IC50) it was 4.27 µM. For the same compound, the Ratio IC50 in experiment [6] is 5.

As for `O=C(OCCCCC#Cc1ccc(C(=O)OC2CSSC2)cc1)c1cccc(F)c1`, the half-maximal inhibitory concentration (IC50) in experiment [1] (read-out: IC50) is 8.91 µM; in experiment [2] (read-out: IC50), 10 µM; in experiment [3], “Not Active”; in experiment [4], 9.21 µM; in experiment [5] (read-out: IC50), 5.18 µM.

Consider `O=C(OC1CSSC1)c1ccc(OCCCCCCOC(=O)c2cc(Br)ccc2Br)cc1`, for which the IC50 result in experiment [1] was “Not Active”; in experiment [2], “Not Active”; in experiment [3] it was “Not Active”; in experiment [4] it was 30.8 µM; in experiment [5] (read-out: IC50) it was 8.85 µM.

In the case of `O=C(OC1CSSC1)c1ccc(CCCCCCOC(=O)c2cc(Br)ccc2Br)cc1`, the IC50 in experiment [1] (read-out: IC50) is 9.69 µM; in experiment [2] (read-out: IC50) it was 11.1 µM; in experiment [3] it was “Not Active”; in experiment [4] it was 17.4 µM; in experiment [5] (read-out: IC50), 2.68 µM. Also, the Ratio IC50 in experiment [6] is above 6.

Take `O=C(OCCCCC#Cc1ccc(C(=O)OC2CSSC2)cc1)c1ccc([N+](=O)[O-])cc1`: the IC50 was 24.6 µM in experiment [1] (read-out: IC50); 24.9 µM in experiment [2] (read-out: IC50); “Not Active” in experiment [3]; 9.46 µM in experiment [4]; 10.1 µM in experiment [5] (read-out: IC50).
